Consider two compounds from patent publication US20160029629A1, “LAWN GROWTH-PROMOTING AGENT AND METHOD OF USING SAME” (BAYER CROPSCIENCE AKTIENGESELLSCHAFT, priority 2013, published 2016).

The test system of assay [1] is Zoysia Matrella. Briefly: Biological Example 1: sod growth test, weight of roots, runners and erect stems after spray treatment. It is filed as in vivo. Conditions: for Roots weight: 334 ppm spray, 2,000 L/ha; for Roots weight / Erect stem weight / Erect stems/runners / Roots weight vs. untreated / Roots/(roots + runners + erect stems) / Roots/runners / Runner weight: 170 days later; for Erect stem weight / Erect stems/runners / Roots weight vs. untreated / Roots/(roots + runners + erect stems) / Roots/runners / Runner weight: 334 ppm spray. The source says: Test crop: Zoysia Matrella
Test method: Z. Matrella sod was laid in a roughly 15 cm checked pattern, and, approximately one month later, penflufen prepared to a predetermined concentration (Cerenturf Forte; aqueous suspension of 22.7 wt % penflufen and 77.3% surfactant and water, prepared according to a normal method) was sprayed thereon (2,000 L/ha). 170 days later, a hole cutter was used to cut out sod sections and interstitial sections, the sections were separated into roots, runners, and erect stems, and the weight of each was measured.

Assay [2] relates to Agrostis stolonifera. Briefly: Biologic Example 2: seeded lawn test, length of above-ground and root portions after soil treatment. It is filed as in vivo. As for the experimental part:
Test crop: Agrostis stolonifera Test method: Plastic cups (diameter 20 cm, depth 5 cm) were filled with a soil mixture (1:1 mixture of sand and mulch), the soil was treated (2,000 L/ha water) with penflufen prepared to a predetermined concentration (Cerenturf Forte) on the day A. stolonifera was planted and at 0.5 leaf cycles, after which germination state was examined. In order to ensure evenness of irrigation, an atomizer was used for a fixed number of pushes, and water amount was monitored so as to be uniform. A basal application was not used. Examination method: Cuttings were taken at random from the test area, and the lengths of the above-ground and root portions were measured.

The subject of assay [3] is brown patch (Rhizoctonia solani). Conditions: in vivo; cited from earlier work.
Where [4] appears, read: 142 ppm, treated at 0.5 leaf cycles, 5 days after treatment.
The mark [5] stands for this setting: 142 ppm, treated on day of planting, 20 days after treatment.
Where [6] appears, read: 283 ppm, treated at 0.5 leaf cycles, 5 days after treatment.
[7] abbreviates: 283 ppm, treated on day of planting, 20 days after treatment.
[8] abbreviates: 525 ppm, treated at 0.5 leaf cycles, 5 days after treatment.
Where [9] appears, read: 525 ppm, treated on day of planting, 20 days after treatment.

For `Cc1nn(C)c(F)c1C(=O)Nc1ccccc1C(C)CC(C)C` (stereo not shown) [Penflufen, N-[2-(1,3-dimethylbutyl)phenyl]-5-fluoro-1,3-dimethyl-1H-pyrazol-4-carboxamide], the “Amount of roots compared to the untreated area” value in assay [1] (both the interstitial section and the sod section) is “increase in the amount of roots”. Moreover, the “Ratio of the root weight to the total weight of the roots, runners, and erect stems, treated vs untreated area” value in assay [1] (in vivo) was “higher in the treated area than in the untreated area”. Further, in assay [1] (interstitial section), the “Amount of roots compared to the untreated area” value is given as “especially marked increase”, the “Roots weight” value was found to be 1.13 g, the “Erect stem weight” value was 4.57 g and the Erect stems/runners is recorded as 124%. Further, in assay [1] (interstitial section), the “Roots weight vs. untreated” value was 127%, the “Roots/(roots + runners + erect stems)” value is given as 12.02%, the Roots/runners is 31% and the “Runner weight” value came to 3.70 g. Also, in assay [1] (sod section), the “Roots weight” value was found to be 1.57 g, the “Erect stem weight” value came out at 11.52 g, the Erect stems/runners was determined as 130% and the “Roots weight vs. untreated” value was 103%. In assay [1] (sod section), the “Roots/(roots + runners + erect stems)” value was 7.16%, the Roots/runners was 18% and the “Runner weight” value stood at 8.84 g. Moreover, in assay [2] (setting [4]), the “Above-ground portion (mm)” value is 18.8 mm, the “Roots (mm)” value worked out at 3.9 mm and the Roots/above-ground portion % is reported as 20.6%. Further, in assay [2] (setting [5]), the “Above-ground portion (mm)” value is reported as 15.9 mm, the “Roots (mm)” value is 3.3 mm and the Roots/above-ground portion % is on record as 20.8%. In assay [2] (setting [6]), the “Above-ground portion (mm)” value is given as 17.3 mm, the “Roots (mm)” value stood at 3.5 mm and the Roots/above-ground portion % was 20.1%. Besides, in assay [2] (setting [7]), the “Above-ground portion (mm)” value is recorded as 17.3 mm, the “Roots (mm)” value amounted to 3.2 mm and the Roots/above-ground portion % is recorded as 18.8%. The “Root growth relative to above-ground portions” value in assay [2] (registered weight (283 ppm) and half-weight, planting day and 0.5 leaf cycle treatment) is given as “root growth tended to be promoted over that of above-ground portions”. Besides, the “Effectiveness against brown patch” value in assay [3] is listed as “extremely effective”.

As to `Cc1nc(C(F)(F)F)c(C(=O)Nc2c(Br)cc(OC(F)(F)F)cc2Br)s1` [Thifluzamide], in assay [2] (setting [8]), the “Above-ground portion (mm)” value is given as 16.9 mm, the “Roots (mm)” value was 2.0 mm and the Roots/above-ground portion % came out at 12.0%. Moreover, in assay [2] (setting [9]), the “Above-ground portion (mm)” value worked out at 15.3 mm, the “Roots (mm)” value is reported as 1.4 mm and the Roots/above-ground portion % is 9.1%.
